{"source": "patent US12702657B2", "about": "“Treatment and prevention of dengue disease” (Janssen Pharmaceuticals, Inc., priority 2019, dated 2026)", "key": {"DENV-2/Rega lab strain [1]": {"tested_on": "DENV-2/Rega lab strain", "test": "AG129 mouse viremia model, low viral input (10^2 PFU), viral load kinetics, pre-exposure prophylaxis", "type": "in vivo, AG129 mice", "settings": "for median serum viral load over all 11 days: LOD=2.59 log10 copies/mL", "description": "In this experiment, lower viral inputs were used (10^2 PFU), compared with the standard viremia experiments with a high viral input (10^6 PFU). 10^2 PFU was selected as it was the lowest viral load leading to a Dengue infection in the mouse model. Using a lower viral input still results in 100% infection of the mice, but the peak viral load is postponed with 1 to 2 days, which more closely mimics a natural human infection (Clapham et al., 2014 and Sim et al., 2015). The mice were treated during 6 consecutive days.\nAnimals were infected i.p. with 10^2 PFU DENV-2/Rega lab strain and treated for six consecutive days twice daily with compound (a) by oral gavage (FIG. 5).\nThe mice were divided in four treatment groups (n=16/group) representing the following treatment regimens: • (i) Vehicle 80%/20% PEG400/H2O, • (ii) compound (a): 10 mg/kg/dose b.i.d. p.o. • (iii) compound (a): 1 mg/kg/dose b.i.d. p.o. • (iv) compound (a): 0.1 mg/kg/dose b.i.d. p.o.\nDaily blood samples were collected to follow the viral load over time. Blood collection, for viral RNA load detection, was performed in two alternating sub-groups of mice. Each sub-group comprised half of the mice (n/2=8) from each of the treatment groups (i) to (iv). Blood was collected from a first sub-group at day 1, 3, 5 and 8 p.i. and from a second sub-group at day 2, 4, 6 and 11 p.i. At day 8 p.i., mice of the first sub-group were sacrificed while those of the second sub-group were sacrificed at day 11 p.i. […]\nAlternating sub-groups were used to enable daily blood collections. Blood for viral RNA load detection was collected from mice in two alternating sub-groups. Each sub-group comprised half of the mice (n/2=8) from each of the treatment groups (i-vi). Blood was collected from a first sub-group at days 1, 3, 5 and 8 p.i. and from a second sub-group at days 2, 4, 6 and 11 p.i. Blood collection was always performed just before the next administration of the compound. At day 8 p.i., half of the mice in each treatment group (n=8/group) were sacrificed. The remaining mice in each treatment group (n=8/group) were sacrificed at day 11 p.i (FIG. 16 Y)."}, "DENV-2/Rega lab strain [2]": {"tested_on": "DENV-2/Rega lab strain", "test": "AG129 mouse viremia model, high viral input (10^6 PFU), pre-exposure prophylaxis", "type": "in vivo, AG129 mice", "settings": "day 3 p.i.; for viral load reduction in serum / median viral load reduction in serum: 10^6 PFU, vs vehicle", "from_the_text": "The AG129 mouse model is a well-established model to study the antiviral effect of compounds against DENV in vivo (Zompi and Harris, 2012). These 129/Sv mice are deficient for both IFN-α/β and IFN-γ receptors, enabling peripheral viral replication upon intravenous (i.v.) or subcutaneous (s.c.) infection with DENV (Johnson and Roehrig, 1999). […]\nTotal RNA from serum was extracted using the NucleoSpin RNA virus kit according to the manufacturer's protocol (Macherey-Nagel, Düren, Germany). The viral RNA load was determined by one-step TaqMan RT-qPCR (master mix from Eurogentec, Seraing, Belgium). […]\nIn a similar setup as for the b.i.d. dosing studies, the in vivo efficacy was studied in the AG129 standard viremia model against DENV-2 with high viral inoculum and with compound (a) q.d. administration. Animals were i.p. infected with 10^6 PFU DENV-2/Rega lab strain in a volume of 200 μL. Animals were treated by administering compound (a) by oral gavage with a first administration at one hour prior to infection. The treatment continued for three consecutive days with one administration of compound (a) every 24 hours (once a day or q.d.). At day 3 post infection (p.i.), the mice were euthanized, and blood was collected (FIG. 3). The viral RNA load was determined as outlined in example 1.\nThe mice were divided in 5 groups (n=8/group) representing the following treatment regimens: • (i) Vehicle 80%/20% PEG400/H2O, • (ii) reference compound (2′CMC, 50 mg/kg per dose, b.i.d., s.c.), • (iii) compound (a): 0.3 mg/kg/dose q.d. • (iv) compound (a): 3 mg/kg/dose q.d. • (v) compound (a): 30 mg/kg/dose q.d. […]\nThe mice were divided in several groups (n=8/group for the viremia study and n=10/group for the survival study) representing the following treatment regimens: • (i) vehicle, 80%/20% PEG400/H2O • (ii) compound (b): 30 mg/kg/dose b.i.d. • (iii) compound (b): 10 mg/kg/dose b.i.d. • (iv) compound (b): 3 mg/kg/dose b.i.d. • (v) compound (b): 1 mg/kg/dose b.i.d."}}, "data": [{"smiles": "COc1cc(NC(C(=O)c2c[nH]c3ccc(OC(F)(F)F)cc23)c2ccc(Cl)cc2OC)cc(S(C)(=O)=O)c1", "note": "(stereo not drawn) [compound (a)]", "values": [{"measurement": "delay of peak viral load versus vehicle", "setting": "DENV-2/Rega lab strain [1]; 0.1 mg/kg/dose b.i.d. p.o., 6 days, 10^2 PFU", "result": "~ 1 day"}, {"measurement": "viral load reduction compared with vehicle", "setting": "DENV-2/Rega lab strain [1]; 0.1 mg/kg/dose b.i.d. p.o., day 5, 10^2 PFU", "result": 0.50, "unit": "log10 copies/mL"}, {"measurement": "viral load over time", "setting": "DENV-2/Rega lab strain [1]; 0.1 mg/kg/dose q.d. p.o., 10^2 PFU", "result": "comparable to the vehicle-treated viral load curve"}, {"measurement": "viral load reduction compared to vehicle-treated mice", "setting": "DENV-2/Rega lab strain [1]; 0.3 mg/kg/dose q.d. p.o., day 5, 10^2 PFU", "result": 1.6, "unit": "log10 copies/mL"}, {"measurement": "course of viral load after day 5", "setting": "DENV-2/Rega lab strain [1]; 0.3 mg/kg/dose q.d. p.o., up to day 11, 10^2 PFU", "result": "no further decline in viral load up to day 11"}, {"measurement": "median serum viral load over all 11 days", "setting": "DENV-2/Rega lab strain [1]; 0.6 mg/kg/dose q.d. p.o., 6 days, 10^2 PFU", "result": "undetectable levels"}, {"measurement": "viral load in the mice over all the days", "setting": "DENV-2/Rega lab strain [1]; 1 mg/kg/dose b.i.d. p.o., 6 days, 10^2 PFU", "result": "undetectable levels"}, {"measurement": "median serum viral load over all 11 days", "setting": "DENV-2/Rega lab strain [1]; 1 mg/kg/dose q.d. p.o., 6 days, 10^2 PFU, 1 viral rebound at day 8", "result": "undetectable levels"}, {"measurement": "median viral load at viral rebound", "setting": "DENV-2/Rega lab strain [1]; 1 mg/kg/dose q.d. p.o., day 8, 10^2 PFU", "result": 3.78, "unit": "log10 copies/mL"}, {"measurement": "median serum viral load over all 11 days", "setting": "DENV-2/Rega lab strain [1]; 3 mg/kg/dose q.d. p.o., 6 days, 10^2 PFU", "result": "undetectable levels"}, {"measurement": "viral load in the mice over all the days", "setting": "DENV-2/Rega lab strain [1]; 10 mg/kg/dose b.i.d. p.o., 6 days, 10^2 PFU", "result": "undetectable levels"}, {"measurement": "median serum viral load over all 11 days", "setting": "DENV-2/Rega lab strain [1]; 10 mg/kg/dose q.d. p.o., 6 days, 10^2 PFU", "result": "undetectable levels"}, {"measurement": "median serum viral load over all 11 days", "setting": "DENV-2/Rega lab strain [1]; 30 mg/kg/dose q.d. p.o., 6 days, 10^2 PFU", "result": "undetectable levels"}, {"measurement": "viral load reduction in serum", "setting": "DENV-2/Rega lab strain [2]; 0.1 mg/kg/dose b.i.d. p.o.", "result": 0.47, "unit": "log10 copies/mL"}, {"measurement": "median viral load reduction in serum", "setting": "DENV-2/Rega lab strain [2]; 0.3 mg/kg/dose q.d. p.o.", "result": 0.7, "unit": "log10 copies/mL"}, {"measurement": "median viral load reduction in serum", "setting": "DENV-2/Rega lab strain [2]; 3 mg/kg/dose q.d. p.o.", "result": 3.1, "unit": "log10 copies/mL"}, {"measurement": "viral load reduction in serum", "setting": "DENV-2/Rega lab strain [2]; 30 mg/kg/dose b.i.d. p.o.", "result": 4.4, "unit": "log10 copies/mL"}, {"measurement": "median viral load reduction in serum", "setting": "DENV-2/Rega lab strain [2]; 30 mg/kg/dose q.d. p.o.", "result": 4.5, "unit": "log10 copies/mL"}, {"measurement": "viral load reduction in serum compared with the vehicle-treated group, significance", "setting": "DENV-2/Rega lab strain [2]; all doses except 0.1 (0.3, 1, 3, 10, 30 mg/kg/dose b.i.d.), p<0.001", "result": "significant viral load reduction"}]}, {"smiles": "COc1cc(NC(C(=O)N2CCc3ccc(OC(F)(F)F)cc32)c2ccc(Cl)cc2)cc(OCCCC(=O)O)c1", "note": "(stereo not drawn) [compound (b)]", "values": [{"measurement": "reduction of viral RNA levels at peak viremia", "setting": "DENV-2/Rega lab strain [1]; compound (b) 0.3 mg/kg b.i.d. p.o., 10^2 PFU", "result": 0.8, "unit": "log10"}, {"measurement": "reduction of viral RNA levels at peak viremia", "setting": "DENV-2/Rega lab strain [1]; compound (b) 1 mg/kg b.i.d. p.o., 10^2 PFU", "result": 1.8, "unit": "log10"}, {"measurement": "viral RNA levels in serum", "setting": "DENV-2/Rega lab strain [1]; compound (b) 3 mg/kg/dose b.i.d. p.o., 6 days, 10^2 PFU", "result": "undetectable levels"}, {"measurement": "viral RNA levels in serum", "setting": "DENV-2/Rega lab strain [1]; compound (b) 10 mg/kg/dose b.i.d. p.o., 6 days, 10^2 PFU", "result": "undetectable levels"}, {"measurement": "viral RNA levels in serum", "setting": "DENV-2/Rega lab strain [1]; compound (b) 30 mg/kg/dose b.i.d. p.o., 6 days, 10^2 PFU", "result": "undetectable levels"}, {"measurement": "viral load reduction in serum", "setting": "DENV-2/Rega lab strain [2]; compound (b) 1 mg/kg per dose b.i.d. p.o.", "result": 0.70, "unit": "log10 copies/mL"}, {"measurement": "viral load reduction in serum", "setting": "DENV-2/Rega lab strain [2]; compound (b) 30 mg/kg per dose b.i.d. p.o.", "result": 3.8, "unit": "log10 copies/mL"}, {"measurement": "viral load reduction compared with the vehicle-treated group, significance", "setting": "DENV-2/Rega lab strain [2]; compound (b), all four doses (1, 3, 10, 30 mg/kg per dose b.i.d.), p<0.05", "result": "significant viral load reduction"}]}]}
